The target in the test is T1, CHIP (Homo sapiens, UniProt Q9UNE7).
T1 construct: gene STUB1; commercial human recombinant CHIP (OriGene)
T1 sequence (Q9UNE7 1-303): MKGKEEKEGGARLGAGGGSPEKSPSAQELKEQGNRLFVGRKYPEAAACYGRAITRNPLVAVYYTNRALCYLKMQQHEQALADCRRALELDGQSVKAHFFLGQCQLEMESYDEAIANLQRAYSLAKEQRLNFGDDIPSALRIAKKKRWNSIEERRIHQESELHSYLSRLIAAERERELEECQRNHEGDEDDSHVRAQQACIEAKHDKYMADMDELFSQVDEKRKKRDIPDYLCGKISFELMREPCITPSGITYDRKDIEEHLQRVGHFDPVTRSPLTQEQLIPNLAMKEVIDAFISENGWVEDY
Put plainly: microscale thermophoresis, Monolith NT.[…], single-site fit. The format is binding.

The source of these data is article PMC12313710, “Targeting the BAG2/CHIP axis promotes gastric cancer apoptosis by blocking apoptosome assembly” (Frontiers in Immunology, 2025).

What is called Kd is a measure of binding affinity in units of concentration.

The structures appear in SMILES notation.

For `C=CC(=O)Nc1ccc(CN2C(=O)N(c3cc(OC)cc(OC)c3)Cc3cnc(Nc4ccc(N5CCN(C)CC5)cc4)nc32)cc1` [FIIN-2], the equilibrium dissociation constant (Kd) came to 1.83 µM.
